Measurements taken from PMC6715681, “A high-throughput screen to identify novel synthetic lethal compounds for the treatment of E-cadherin-deficient cells” (Scientific Reports, 2019).
Marks after values point to notes of the source that are not given here.

Assays:
MCF10A CDH1^−/− cells [1] = assay: xCELLigence real-time impedance assay (cell proliferation index); assay type: cell-based, human; settings: for SL differential between the two cell lines (in words): xCELLigence real-time assay, SLEC-8 at 10 μM, SLEC-11 at 20 μM
Method: (§1) The xCELLigence real-time system quantifies electrical impedance as a measurement of cell viability which is expressed as the cell proliferation index. […] This was due to drug effects and briefly removing plates from the incubator for the addition of compounds and controls. Despite a slower adhesion time for MCF10A CDH1^−/−, consistent with our previous finding[3] the DMSO control treated cells had similar slopes of 0.17 and 0.15 for MCF10A WT and MCF10A CDH1^−/−, respectively.
(§2) Figure 10 Real-time xCELLigence data for lead compounds 8 and 11. (A) Timeline for the real-time cellular assay. Plates were seeded 4,000 cells/well as described in the Methods. (B,C) Data shown is a representative experiment of two biological replicates, performed in 96-well xCELLigence E-plates. Error bars are SD. Measurements were taken every 15 minutes. The cell proliferation index was calculated using the RTCA software. (B) Cells were treated with SLEC-8. (C) Cells were treated with SLEC-11.
(§3) Cells were seeded into each well of Corning’s black walled, clear bottom 96-well plates with a total volume of 100 μL per well. Edge wells were excluded. Both isogenic cell lines were seeded into the same plate to mitigate plate-to-plate variation. Plates for real-time analysis were transferred to the xCELLigence platform (ACEA Biosciences, USA) or the IncuCyte FLR imaging system (Essen BioScience, USA) as previously described.

MCF10A WT cells [2] = assay: as above; assay type: cell-based, human
Method: as §1, §2, §3

MCF10A WT cells [3] = assay: Medium-throughput validation in 96-well plates, Hoechst-33342 nuclei counts (CellProfiler); assay type: cell-based; settings: Homo sapiens, MCF-10A, 96-well validation, at least five concentration points
Method: as §3
(§4) Seventy-two hours post seeding (or 48 hours post compound addition), plates were assayed for cell viability using a one-step cocktail of PFA (0.25% v/v), saponin (0.075% w/v) and Hoechst 33342 (1 μg/ml final) as described previously. CellProfiler was used to enumerate cell counts as previously described.

MCF10A CDH1^−/− cells [4] = assay: 11-point dose-response screen, high-content imaging (HCI) of Hoechst 33342 nuclei; assay type: cell-based, human; settings: 11-point screen; for EC50: Homo sapiens, MCF-10A, HCI
Method: The 11-point dose-response screen evaluated a concentration range from 0.02 µM to 20 µM for both isogenic cell lines in duplicate biological replicates (Fig. 4). One limitation to metabolism-based cellular assays is that a change in read out (fluorescence, luminescence or absorbance) may not necessarily be caused by cell death and could instead result from a cessation of proliferation due to senescence or inhibited mitochondrial respiration. For this reason, a direct measurement of cell counts using cellular imaging of nuclei stained with Hoechst 33342 was also included at the 11-point screening stage. For the CTB 11-point screen all plates had acceptable Z’ values above 0.4, with the second biological replicate having 70% above 0.6 (Fig. 4A). The Z’ values for the high-content imaging (HCI) 11-point screen plates were above 0.4 for MCF10A WT, except one plate from biological replicate two with 0.396 (Fig. 4B). However, for MCF10A CDH1^−/− HCI data, only four plates were above a Z’ of 0.4 and the mean Z’ was 0.32 compared to a mean of 0.51 for MCF10A WT. A further quality metric known as the strictly standardized mean difference (SSMD)[40] is a less conservative approach for QC and a cut-off of >3 is generally used. The mean SSMD value was 7.04 for MCF10A WT and 5.27 for MCF10A CDH1^−/− plates and indicates the MCF10A CDH1^−/− HCI data was acceptable[41]. There was a good correlation between the top hits from the HCI and CTB 11-point screening with an overlap of 31 / 40 for the top 40 compounds selected from the eventual hit selection strategies.
A direct measurement of cell counts using cellular imaging of nuclei was also included at the 11-point screening stage. Plates were fixed, washed and stained using an ELx405 Select deep well washer (BioTek). Media was first aspirated leaving 10 μL/well, then 4% w/v PFA was added and plates left for 15 minutes at RT. Plates were then washed twice with PBS-T, before aspirating all permeabilization buffer and adding Hoechst 33342 (1 μg/mL final) in PBS. Plates were then stored in the dark at 4 °C, until being imaged on a BD Pathway 855. Two 10x images per well were taken and cell counts enumerated using CellProfiler[48].

MCF10A CDH1^−/− cells [5] = assay: IncuCyte real-time live cell imaging (cell confluence); assay type: cell-based, human; settings: for Greatest SL difference in the slope of the growth trendline, MCF10A CDH1^−/− compared to MCF10A WT: linear growth phase; for Growth rate effect in MCF10A CDH1^−/− cells (in words): all concentrations between 2.5–20 μM, 48 hours
Method: (§5) Real-time viability assays were performed on the two lead compounds SLEC-8 and SLEC-11 using the two isogenic MCF10A cell lines. The IncuCyte and xCELLigence assay systems quantify cell growth over the drugging period in real-time, allowing for the assessment of even subtle growth inhibitory effects following compound treatment. The IncuCyte was used in combination with an end-point assay (nuclei counting) to give both live cell imaging and normalized cell counts for each plate.
(§6) Figure 9 IncuCyte validation data for lead compounds 8 and 11. (A) Timeline for the combined live cell imaging and end-point viability assays. Plates were seeded 4,000 cells/well as described in the Methods. (B,C) One hour following compound addition, plates were transferred to the IncuCyte. Three 4x images per well were taken every two hours for 48 hours. An EC80 dose of doxorubicin was used (Supplementary Table 1). Data shown is a representative experiment of three biological replicates. Error bars are SD. The cell confluence v1.5 was calculated using the IncuCyte software. (B) Live cell imaging for SLEC-8. (C) Live cell imaging for SLEC-11. Graphs were created in Excel.
(§7) To calculate growth rates, a trendline was fitted to the linear growth phase of each cell line. The greatest SL difference in the slope of the trendline for SLEC-8 as at 10 μM treatment with 2.0 fold difference for MCF10A CDH1^−/− cells, compared to MCF10A WT. For SLEC-11 the greatest SL difference was at 20 μM, with a 4.0 fold difference in the slope of the trendline for MCF10A CDH1^−/− cells compared to MCF10A WT (data not shown).
as §3

MCF10A WT cells [6] = assay: as above; assay type: cell-based, human; settings: 2.5–20 μM, 48 hours
Method: as §5, §6, §7, §3

MCF10A CDH1^−/− cells [7] = assay: Medium-throughput validation in 96-well plates, Hoechst-33342 nuclei counts (CellProfiler); assay type: cell-based, human; settings: for EC50 ratio (MCF10A WT/MCF10A CDH1^−/−) / EC50: 96-well validation; for EC50: Hoechst nuclei counts, at least five concentration points; for Differential at 5 µM (%): 48 h post compound addition
Method: as §3, §4

[8] = normalized cell counts MCF10A WT – MCF10A CDH1^−/−, 96-well

COc1ccc2nc(C)cc(NCc3ccc(F)cc3)c2c1 [SLEC-11, N-(4-Fluorobenzyl)-6-methoxy-2-methylquinolin-4-amine]
SL differential between the two cell lines (in words) (MCF10A CDH1^−/− cells [1]): significant SL differential
Difference in cell proliferation index between compound and DMSO (maximum) (MCF10A CDH1^−/− cells [1]; xCELLigence, 20 μM, 62 hours post seeding): 7.9 fold
Difference in cell proliferation index to DMSO in MCF10A WT cells (in words) (MCF10A WT cells [2]; 20 μM, 62 hours post seeding): no difference
EC50 (MCF10A WT cells [3]): 10.8 µM
EC50 (MCF10A CDH1^−/− cells [4]): 7.34 µM
Greatest SL difference in the slope of the growth trendline, MCF10A CDH1^−/− compared to MCF10A WT (MCF10A CDH1^−/− cells [5]; 20 μM treatment): 4.0 fold
Growth rate effect in MCF10A CDH1^−/− cells (in words) (MCF10A CDH1^−/− cells [5]): dose-dependent growth rate reduction
Growth reduction in MCF10A WT cells (in words) (MCF10A WT cells [6]): only observed at the higher concentrations
EC50 ratio (MCF10A WT/MCF10A CDH1^−/−) (MCF10A CDH1^−/− cells [7]): 1.53
EC50 (MCF10A CDH1^−/− cells [7]): 7.02 µM
EC50 (MCF10A CDH1^−/− cells [7]; Homo sapiens, MCF-10A): 7 µM
Differential at 5 µM (%) (MCF10A CDH1^−/− cells [7]; [8]): 20.7%
Differential at 5 µM (%) (MCF10A CDH1^−/− cells [7]; normalized cell counts MCF10A WT – MCF10A CDH1^−/−, 96-well, listed as 11): 20.74* %

CC(O)CNCc1ccc(OCc2ccc(Cl)cc2Cl)cc1 (stereo not shown) [SLEC-8]
SL differential between the two cell lines (in words) (MCF10A CDH1^−/− cells [1]): significant SL differential
Decrease in cell proliferation index compared to DMSO (MCF10A CDH1^−/− cells [1]; xCELLigence, 10 μM, 60 hours post seeding): 2.7 fold
Recovery of MCF10A WT cells (in words) (MCF10A WT cells [2]; 10 μM, by 60 hours post seeding): able to fully recover
EC50 (MCF10A WT cells [3]): 12.4 µM
EC50 ratio between MCF10A WT and MCF10A CDH1^−/− cells (MCF10A CDH1^−/− cells [4]; value corresponds to the HCI EC50s of Fig. 5): 5.03 fold change
EC50 (MCF10A CDH1^−/− cells [4]): 2.02 µM
Greatest SL difference in the slope of the growth trendline, MCF10A CDH1^−/− compared to MCF10A WT (MCF10A CDH1^−/− cells [5]; 10 μM treatment): 2.0 fold
Growth rate effect in MCF10A CDH1^−/− cells (in words) (MCF10A CDH1^−/− cells [5]): dose-dependent growth rate reduction
Growth reduction in MCF10A WT cells (in words) (MCF10A WT cells [6]): only observed at the higher concentrations
EC50 ratio (MCF10A WT/MCF10A CDH1^−/−) (MCF10A CDH1^−/− cells [7]): 1.36
EC50 (MCF10A CDH1^−/− cells [7]): 9.07 µM
EC50 (MCF10A CDH1^−/− cells [7]; Homo sapiens, MCF-10A): 9.1 µM
SL differential at 2.5 μM (MCF10A CDH1^−/− cells [7]; normalized cell counts MCF10A WT – MCF10A CDH1^−/−, 96-well, 2.5 μM): 22.0%
Differential at 5 µM (%) (MCF10A CDH1^−/− cells [7]; [8]): 22.8%
Differential at 5 µM (%) (MCF10A CDH1^−/− cells [7]; normalized cell counts MCF10A WT – MCF10A CDH1^−/−, 96-well, listed as 8): 22.79* %
